{"source": "patent US9557341B2", "about": "“Risk assessment for cutaneous adverse drug reactions from antiretroviral agent” (priority 2008, dated 2017)", "key": {"[1]": {"conditions": "cited from earlier work"}, "[2]": {"system": "HIV-infected That patients", "experiment": "Case-control HLA association study of NVP-induced skin rash (Example 1)", "assay_type": "in vivo, human", "procedure": "A case-control study was conducted using HIV-infected That patients who visited (i) Infectious Disease Clinic, Ramathibodi Hospital, Mahidol University, (ii) Bamrasnaradura Infectious Disease Institute, Ministry of Public Health, or (iii) Department of Preventive Medicine, Faculty of Medicine, Srinakharinwirot University, Thailand. The enrollment of 80 skin-rash cases and 80 NPV-tolerant patients for the first set of samples was done between March and December, 2006. To verify a possible association in the initial screening, the second set of samples consisting of 67 skin-rash patients and 105 controls was enrolled between January and June, 2007.\nInclusion criteria were adult HIV-infected patients (>15 years old) who were treated with GPO-VIR®. Each eligible patient was followed up for at least 6 months after the initiation of NVP treatment or until they developed skin rash. Patients were categorized into case and control groups according to a presence or an absence of skin rash. The control group was defined as the patient who had been treated with NVP for at least 6 months and developed no sign of cADRs. The case group was defined to be those having the skin rash within 6 months after the beginning of NVP treatment. The diagnosis of the NVP-induced rash was reviewed and given by infectious disease specialists. Severity of rash was categorized according to Division of AIDS table for grading the severity of adult and pediatric adverse events, National Institute of Allergy and Infectious Disease (NIAID)/National Institutes of Health (NIH). Briefly, grade 1: a localized macular rash; grade 2: diffuse macular, maculopapular, or morbilliform rash or target lesions; grade 3: diffuse macular, maculopapular, or morbilliform rashes with vesicles or a limited number of bullae or superficial ulcerations of mucous membrane limited to one site; and grade 4: extensive or generalized bullous lesions, SJS, ulceration of mucous membrane involving more than two distinct mucosal sites, or TEN. Collection of blood samples and clinicopathological information were undertaken with informed consent and approved by the Institutional Review Boards. This study was conducted in accordance with the principles of the Declaration of Helsinki.\nGenomic DNA was isolated with a standard phenol-chloroform extraction protocol and re-suspended in Tris-HCl buffer (pH 8.5). Their concentration was quantified using a UV spectrophotometer ND-1000 (NanoDrop Technologies, Wilmington, Del.). The purity was determined by calculating the ratio of absorbance at 260-280 nm.\nGenotypes in HLA-A, HLA-B, HLA-C, HLA-DRB1, HLA-DPB1 and HLA-DQB were determined by sequence-based typing (SBT) using the AlleleSEQR Sequenced Based Typing Kits (Atria Genetics, South San Francisco, Calif.), according to the manufacturer's instructions. Briefly, the primary amplification reaction consists of PCR pre-mix reagent, AmpliTaq Gold and 20 ng/μl genomic DNA. The PCR products were purified using ExoSAP-IT and sequenced in the forward and reverse orientations. Finally, the reaction products were reconstituted with 15 μl of Hi-Di™ formanide (Applied Biosystems, Foster City, Calif.), ran on the ABI 3730xl DNA Analyzer (Applied Biosystems) and genotype calling were made by Assign SBT™ 3.2.7 software (Conexio Genomics, Perth, Australia). HLA alleles showing a possible association (Pc-value <0.05) with NPV-induced skin rash in the first screening were verified in the second set of samples. Allelic frequency of HLA regions in the general That population was obtained from the published information.\nDichotomous variables between the two groups were compared by Fisher's exact tests. Continuous variables were compared by the Mann-Whitney U test. Odds ratios were calculated with Haldane's modification, which add 0.5 to all cells to accommodate possible zero counts. All P-values were two-tailed, P<0.05 was considered to indicate possible statistical significance. […]"}, "[3]": {"conditions": "Haplotype A*2407, B*3505, DRB1*1202, first screening"}, "[4]": {"conditions": "Haplotype A*2407, B*3505, first screening"}, "[5]": {"conditions": "Haplotype A*2407, Cw*0401, B*3505, DRB1*1202, first screening"}, "[6]": {"conditions": "Haplotype A*2407, Cw*0401, B*3505, first screening"}, "[7]": {"conditions": "Haplotype B*3505, DRB1*1202, first screening"}, "[8]": {"conditions": "Haplotype Cw*0401, B*3505, DRB1*1202, first screening"}}, "note": "Values joined by “and” are separate entries in the source; they are usually repeats but may differ in a detail not shown here. Equal entries are not always repeated.", "data": [{"compound": "Cc1ccnc2c1NC(=O)c1cccnc1N2C1CC1", "note": "[NVP, nevirapine]", "values": [{"measurement": "hepatitis", "setting": "[1]; HIV patients", "value": "7-15.6%"}, {"measurement": "patients reported rash", "setting": "[1]; HIV patients", "value": "16%-48"}, {"measurement": "negative predictive value of HLA-DRB1*0101 for hepatitis", "setting": "[1]; patient with high CD4 level", "value": 96, "unit": "%"}, {"measurement": "positive predictive value of HLA-DRB1*0101 for hepatitis", "setting": "[1]; patient with high CD4 level", "value": 40, "unit": "%"}, {"measurement": "incidence of the skin rash in NVP-treated patients who had HLA-B*3505", "setting": "[2]; 25 of 27 patients", "value": 93, "unit": "%"}, {"measurement": "subjects with HLA-B*3505 n (%), NVP-rash", "setting": "[2]; First screening", "value": "14 (18.4) %"}, {"measurement": "subjects with HLA-B*3505 n (%), NVP-tolerant", "setting": "[2]; First screening", "value": "(1.3) %"}, {"measurement": "Time to develop rash (days), median (IQR)", "setting": "[2]; First screening, NVP-rash (n = 80)", "value": 12, "unit": "days"}, {"measurement": "Severity of rash, n (%)", "setting": "[2]; Grade 1, first screening NVP-rash", "value": "(0) %"}, {"measurement": "Severity of rash, n (%)", "setting": "[2]; Grade 1, second screening NVP-rash", "value": "(20.3) %"}, {"measurement": "Severity of rash, n (%)", "setting": "[2]; Grade 2, first screening NVP-rash", "value": "(35.4) %"}, {"measurement": "Severity of rash, n (%)", "setting": "[2]; Grade 2, second screening NVP-rash", "value": "(36) %"}, {"measurement": "Severity of rash, n (%)", "setting": "[2]; Grade 3, first screening NVP-rash", "value": "(63.3) %"}, {"measurement": "Severity of rash, n (%)", "setting": "[2]; Grade 3, second screening NVP-rash", "value": "(28.1) %"}, {"measurement": "Severity of rash, n (%)", "setting": "[2]; Grade 4, first screening NVP-rash", "value": "(1.3) %"}, {"measurement": "Severity of rash, n (%)", "setting": "[2]; Grade 4, second screening NVP-rash", "value": "(15.6) %"}, {"measurement": "Odds ratio (95% CI)", "setting": "[2]; HLA-A*2407, NVP-rash vs NVP-tolerant, first screening", "value": 12.12}, {"measurement": "positive allele n (%), NVP-rash", "setting": "[2]; HLA-A*2407, first screening", "value": "(7.8) %"}, {"measurement": "positive allele n (%), NVP-tolerant", "setting": "[2]; HLA-A*2407, first screening", "value": "(0.7) %"}, {"measurement": "Odds ratio (95% CI)", "setting": "[2]; HLA-B*3505 allele, NVP-rash vs NVP-tolerant, first screening", "value": 16.53}, {"measurement": "Odds ratio (95% CI)", "setting": "[2]; HLA-B*3802, NVP-rash vs NVP-tolerant, first screening", "value": 0.22}, {"measurement": "positive allele n (%), NVP-rash", "setting": "[2]; HLA-B*3802, first screening", "value": "(2) %"}, {"measurement": "positive allele n (%), NVP-tolerant", "setting": "[2]; HLA-B*3802, first screening", "value": "(8.6) %"}, {"measurement": "Odds ratio (95% CI)", "setting": "[2]; HLA-Cw*0401, NVP-rash vs NVP-tolerant, first screening", "value": 5.36}, {"measurement": "positive allele n (%), NVP-rash", "setting": "[2]; HLA-Cw*0401, first screening", "value": "(13.3) %"}, {"measurement": "positive allele n (%), NVP-tolerant", "setting": "[2]; HLA-Cw*0401, first screening", "value": "(2.8) %"}, {"measurement": "Odds ratio (95% CI)", "setting": "[2]; HLA-Cw*0702, NVP-rash vs NVP-tolerant, first screening", "value": 0.40}, {"measurement": "positive allele n (%), NVP-rash", "setting": "[2]; HLA-Cw*0702, first screening", "value": "(10.9) %"}, {"measurement": "positive allele n (%), NVP-tolerant", "setting": "[2]; HLA-Cw*0702, first screening", "value": "(23.6) %"}, {"measurement": "Odds ratio (95% CI)", "setting": "[2]; HLA-DRB1*1202, NVP-rash vs NVP-tolerant, first screening", "value": 2.56}, {"measurement": "positive allele n (%), NVP-rash", "setting": "[2]; HLA-DRB1*1202, first screening", "value": "(25.6) %"}, {"measurement": "positive allele n (%), NVP-tolerant", "setting": "[2]; HLA-DRB1*1202, first screening", "value": "(11.9) %"}, {"measurement": "Odds ratio (95% CI)", "setting": "[2]; [3]", "value": 5.81}, {"measurement": "positive allele n (%), NVP-rash", "setting": "[2]; [3]", "value": "(3.9) %"}, {"measurement": "positive allele n (%), NVP-tolerant", "setting": "[2]; [3]", "value": "(0.7) %"}, {"measurement": "Odds ratio (95% CI)", "setting": "[2]; [4]", "value": 7.03}, {"measurement": "positive allele n (%), NVP-rash", "setting": "[2]; [4]", "value": "(4.7) %"}, {"measurement": "positive allele n (%), NVP-tolerant", "setting": "[2]; [4]", "value": "(0.7) %"}, {"measurement": "Odds ratio (95% CI)", "setting": "[2]; [5]", "value": 5.81}, {"measurement": "positive allele n (%), NVP-rash", "setting": "[2]; [5]", "value": "(3.9) %"}, {"measurement": "positive allele n (%), NVP-tolerant", "setting": "[2]; [5]", "value": "(0.7) %"}, {"measurement": "Odds ratio (95% CI)", "setting": "[2]; [6]", "value": 7.03}, {"measurement": "positive allele n (%), NVP-rash", "setting": "[2]; [6]", "value": "(4.7) %"}, {"measurement": "positive allele n (%), NVP-tolerant", "setting": "[2]; [6]", "value": "(0.7) %"}, {"measurement": "Odds ratio (95% CI)", "setting": "[2]; [7]", "value": 7.03}, {"measurement": "positive allele n (%), NVP-rash", "setting": "[2]; [7]", "value": "(4.7) %"}, {"measurement": "positive allele n (%), NVP-tolerant", "setting": "[2]; [7]", "value": "(0.7) %"}, {"measurement": "Odds ratio (95% CI)", "setting": "[2]; [8]", "value": 7.03}, {"measurement": "positive allele n (%), NVP-rash", "setting": "[2]; [8]", "value": "(4.7) %"}, {"measurement": "positive allele n (%), NVP-tolerant", "setting": "[2]; [8]", "value": "(0.7) %"}, {"measurement": "Odds ratio (95% CI)", "setting": "[2]; Haplotype Cw*0401, B*3505, first screening", "value": 12.12}, {"measurement": "Odds ratio (95% CI), HLA-B*3505", "setting": "[2]; Mild to moderate rash vs NVP-tolerant", "value": 19.30}, {"measurement": "Odds ratio (95% CI), HLA-B*3505", "setting": "[2]; Mild to moderate rash vs general population (n = 142)", "value": "30.41 (4.88-186.67)"}, {"measurement": "subjects with HLA-B*3505 n (%), NVP-rash", "setting": "[2]; Mild to moderate skin rash (grade 1 and 2)", "value": "11 (17.7) %"}, {"measurement": "Odds ratio (95% CI), HLA-B*3505", "setting": "[2]; NVP-rash vs NVP-tolerant, first screening", "value": 16.94}, {"measurement": "Odds ratio (95% CI), HLA-B*3505", "setting": "[2]; NVP-rash vs NVP-tolerant, second screening", "value": 20.43}, {"measurement": "Odds ratio (95% CI), HLA-B*3505", "setting": "[2]; NVP-rash vs NVP-tolerant, total", "value": 18.96}, {"measurement": "Odds ratio (95% CI), HLA-B*3505", "setting": "[2]; NVP-rash vs general population (n = 142), first screening", "value": "31.84 (5.20-192.46)"}, {"measurement": "Odds ratio (95% CI), HLA-B*3505", "setting": "[2]; NVP-rash vs general population (n = 142), second screening", "value": "27.70 (4.45-169.80)"}, {"measurement": "subjects with HLA-B*3505 n (%), NVP-rash", "setting": "[2]; Second screening", "value": "11 (16.4) %"}, {"measurement": "subjects with HLA-B*3505 n (%), NVP-tolerant", "setting": "[2]; Second screening", "value": "(1) %"}, {"measurement": "Time to develop rash (days), median (IQR)", "setting": "[2]; Second screening, NVP-rash (n = 67)", "value": 14, "unit": "days"}, {"measurement": "Odds ratio (95% CI), HLA-B*3505", "setting": "[2]; Severe rash vs NVP-tolerant", "value": 19.89}, {"measurement": "Odds ratio (95% CI), HLA-B*3505", "setting": "[2]; Severe rash vs general population (n = 142)", "value": "31.33 (5.12-189.38)"}, {"measurement": "subjects with HLA-B*3505 n (%), NVP-rash", "setting": "[2]; Severe skin rash (grade 3 and 4)", "value": "14 (18.2) %"}, {"measurement": "subjects with HLA-B*3505 n (%), NVP-rash", "setting": "[2]; Total (combined data set)", "value": "17.5% and 20% and 25 (17.5) %"}, {"measurement": "Time to develop rash (days), median (IQR)", "setting": "[2]; Total, NVP-rash (n = 147)", "value": 12, "unit": "days"}, {"measurement": "specificity of HLA-B*3505 for NVP-induced skin rash", "setting": "[2]; combined data set", "value": 98.9, "unit": "%"}]}]}
